Measured values taken from ChEMBL document CHEMBL3244364, “5,11-dimethyl-2,9-bis(phenylacetyl)-5,11-diazatetracyclo[6.2.2.0(2,7).0(4,9)]dodecane, a potent, novel analgesic” (J Med Chem, 1977).
The source made the active and inactive calls.

Tests used:
[1] = system: Rattus norvegicus; assay: Analgesic activity in sc dosed rat assessed as estimated dose to elevate pain reaction threshold to pressure applied to hind paw of to 50 mmHg; type: functional
[2] = system: Rattus norvegicus; assay: Analgesic activity in rat assessed as elevate pain reaction threshold to pressure applied to hind paw of to 50 mmHg at 10 mg/kg, iv; type: functional, organism-based; design: dose 10 mg/kg
[3] = system: Rattus norvegicus; assay: Analgesic activity in rat assessed as elevate pain reaction threshold to pressure applied to hind paw of to 50 mmHg at 5 mg/kg, iv; type: functional, organism-based; design: dose 5 mg/kg
[4] = system: Rattus norvegicus; assay: Ratio of morphine ED50 to compound ED50 for analgesic activity in sc dosed rat; type: functional
[5] = species on record: Rattus norvegicus; assay: Toxicity in rat assessed as catatonia; type: organism-based; conditions: in vivo
[6] = species on record: Rattus norvegicus; assay: Toxicity in rat assessed as straub tail; type: organism-based; conditions: in vivo
[7] = species on record: Rattus norvegicus; assay: Toxicity in rat assessed as exopthalmus; type: organism-based; conditions: in vivo
[8] = system: Rattus norvegicus; assay: Analgesic activity in rat assessed as ability to prolong reaction time at 3 mg/kg, sc by tail-flick assay; type: functional, organism-based; design: dose 3 mg/kg
[9] = system: Rattus norvegicus; assay: Analgesic activity in rat assessed as ability to prolong reaction time at 3 mg/kg, sc by tail-flick assay in presence of 10 mg/kg, sc naloxone; type: functional, organism-based
[10] = system: Rattus norvegicus; assay: Analgesic activity in rat assessed as elevate pain reaction threshold to pressure applied to hind paw of to 50 mmHg at 50 mg/kg, sc; type: functional, organism-based; design: dose 50 mg/kg
[11] = Rattus norvegicus, sc, read-out: ED50

In the case of CN1CC2C3CN(C)C4CC3(C(=O)Cc3ccccc3)C1CC24C(=O)CC1CCCCC1 (configuration not stated), the ED50 [1, 11] was 10.1 mg/kg.

In the case of O=C(Cc1ccccc1)C12CC3NCC1C1CNC2CC31C(=O)Cc1ccccc1, the ED50 [1, 11] was over 81 mg/kg.

In the case of CN1CC2C3CNC4CC3(C(=O)Cc3ccccc3)C1CC42C(=O)Cc1ccccc1 (configuration not stated), the ED50 [1, 11] was 45 mg/kg.

CCN1CC2C3CN(CC)C4CC3(C(=O)Cc3ccccc3)C1CC24C(=O)Cc1ccccc1 gave an ED50 [1, 11] of 41.1 mg/kg.

C=CCN1CC2C3CN(CC=C)C4CC3(C(=O)Cc3ccccc3)C1CC24C(=O)Cc1ccccc1 showed an ED50 [1, 11] of over 81 mg/kg.

With CCN1CC2C3CN(C)C4CC3(C(=O)Cc3ccccc3)C1CC24C(=O)Cc1ccccc1 (configuration not stated) the ED50 [1, 11] was 29.9 mg/kg.

With C=CCN1CC2C3CN(C)C4CC3(C(=O)Cc3ccccc3)C1CC24C(=O)Cc1ccccc1 (configuration not stated) the ED50 [1, 11] was over 80 mg/kg and the Activity [2] was “inactive”.

CN1CC2C3CN(C)C4CC3(C(=O)CC3CCCCC3)C1CC24C(=O)CC1CCCCC1 was tested, and the ED50 [1, 11] was over 81 mg/kg.

With CC(C)=CCN1CC[C@]2(C)c3cc(O)ccc3C[C@H]1[C@H]2C the Activity [3] was “Active”.

In the case of CN1CC2C3CN(C)C4CC3(C(=O)Cc3ccccc3)C1CC24C(=O)Cc1ccccc1 (racemic) [listing 1 of 2 here], the ED50 [1] was 1 mg/kg, the “Ratio ED50” value [4] was 1.5 and the Activity [5] was “Toxic”. For the same molecule, the Activity [6] was “Toxic” and the Activity [7] was “Toxic”.

In the case of CN1CC2C3CN(C)C4CC3(C(=O)Cc3ccccc3)C1CC24C(=O)Cc1ccccc1 (racemic) [listing 2 of 2 here], the Activity [8] was “Active”, the Activity [9] was “inactive” and the Activity [10] was “Active”.

In the case of CN1CC2C3CN(C)C4CC3(C(=O)Cc3ccccc3)C1CC24C(=O)Cc1ccccc1 (single isomer, unassigned; (+)), the ED50 [1] was over 80 mg/kg.

For CN1CC2C3CN(C)C4CC3(C(=O)Cc3ccccc3)C1CC24C(=O)Cc1ccccc1 (single isomer, unassigned; (-)), the ED50 [1] was 0.6 mg/kg and the “Ratio ED50” value [4] was 3.

In the case of CN1CC[C@]23c4c5ccc(O)c4O[C@H]2[C@@H](O)C=C[C@H]3[C@H]1C5 [MORPHINE], the ED50 [1, 11] was 1.5 mg/kg.
